Test results taken from US11767303B2, “Compounds and methods for inhibiting viral replication and methods of treating and preventing flaviviral infections” (priority 2020, dated 2023).
Like-named read-outs stand apart in the source and are kept apart here.

Key:
ZIKV NS3 = experiment: Western blot of ZIKV NS3 and polyprotein precursor in infected A549 cells; assay type: cell-based, Zika virus; details: MOI 0.1, 48 hrs
Experimental: FIGS. 6A-6C show mechanism of action studies. […] Viral titers were quantified using plaque forming assay 48 hrs post-infection. DMSO was added to control. N=3. ***, p<0.001. […] N=3. […] Right, Band intensities of PP and NS3 normalized to the GAPDH control (N=3). […] Li et al., “Existing Drugs as Broad-Spectrum and Potent Inhibitors for Zika Virus by Targeting NS2B-NS3 Interaction,” Cell Res. 27:1046-1064 (2017), which is hereby incorporated by reference in its entirety. At 48 hrs post-infection, cells were washed, harvested, and protected by protease inhibitor cocktail prior to lysis by SDS-PAGE loading buffer. Upon incubation at 95° C. for 10 min, sample was subjected to Western blot analysis with anti-ZIKV NS3 (GTX133309, GeneTex, Inc.) and anti-GAPDH (CB1001, EMD Millipore) as primary antibodies. Error bars in all panels represent the standard deviations at each condition.
Western Blot. Western blot was performed using anti-ZIKV NS3 (GTX133309, GeneTex, Inc.) and anti-GAPDH (CB1001, EMD Millipore) antibodies, as described previously. Li et al., “Existing Drugs as Broad-Spectrum and Potent Inhibitors for Zika Virus by Targeting NS2B-NS3 Interaction,” Cell Res. 27:1046-1064 (2017) and Brecher et al., “A Conformational Switch High-Throughput Screening Assay and Allosteric Inhibition of the Flavivirus NS2B-NS3 Protease,” PLoS Pathog. […]

3D organoids = experiment: Toxic effect on 3D organoids; assay type: cell-based, human; details: 1.5 μM
Text: Culturing of human iPSCs. Human iPSC F11350.1 culture was maintained in feed-free conditions using mTeSR1 medium (StemCell Technologies #85851) with 5× supplement (StemCell Technologies #85852). Cells were maintained on six-well plates coated with human embryonic stem cell-qualified Matrigel at a 1:60 dilution (Corning Catalog #354277) and passaged with ReLeSR (StemCell Technologies #05872). Cortical 3D organoids were generated based on the protocol described by Yoon et al. Yoon et al., “Reliability of Human Cortical Organoid Generation,” Nat. Methods. […] Briefly, iPSCs were dissociated with accutase (ThermoFisher #A1110501) and then plated at a density of 3×10^6 cells per well in AggreWell 800 24-well plate (StemCell Technologies #34811) in Essential 8™ medium (ThermoFisher #A1517001) supplemented with 10 μM rock inhibitor (Tocris #Y27632). The plate was centrifuged at 100×g for 3 min and incubated at 37° C. overnight. […]
To evaluate if JMX0207 protects organoids from ZIKV infections, a full-length infectious ZIKV clone expressing Venus fluorescent protein (ZIKV-Venus) was first generated. […] ZIKV infection was quantified by a plaque forming unit (PFU) assay at 5 dpi and by fluorescence imaging at 7 dpi, respectively.

[1] = not told
[2] = Repeated oral dosing toxicity in mice; assay type: in vivo, mouse; details: repeated oral dosing 40 mg/kg/day for 7 days
DENV2 = experiment: Viral titer (plaque) reduction assay, DENV2 in A549 cells; assay type: cell-based, Dengue virus serotype 2; details: Dengue virus, DENV2, A549 cells
Experimental: Viral Titer Reduction Assay. A viral titer reduction assay was used to determine the compounds' effect on DENV2 and ZIKV strains, as described previously. […] Human A549 lung carcinoma cells and human primary neural progenitor cells were used, as described previously. […] 13:e1006411 (2017), which are hereby incorporated by reference in their entirety. All experiments were performed in triplicates.
A viral plaque reduction assay was performed next to evaluate the antiviral efficacy of these derivatives. Human lung carcinoma A549 cells were infected with DENV2 in the presence of a concentration series of derivatives or a dimethyl sulfoxide (DMSO) control, and viral titers were measured at 48 hrs post-infection, as described previously.

A549 cells = experiment: WST-8 cell proliferation cytotoxicity assay; assay type: cell-based, human; details: A549 cells; read-out: CC50 (A549)
Experimental: (§1) Cytotoxicity Assay. […] All experiments were performed in triplicates.
(§2) To address this concern, next the compound cytotoxicity CC50 was measured using a WST-8 cell proliferation assay, as described previously.

[3] = WST-8 cell proliferation cytotoxicity assay; assay type: cell-based, human; details: human; Table 4, preliminary SAR, A549 cells; read-out: CC50
Experimental: as §1, §2

[4] = Pharmacokinetics in B6 mice after oral gavage; details: B6 mice, single oral dose 40 mg/kg, plasma
Text: Pharmacokinetics. […] Fan et al., “Contributions of Hepatic and Intestinal Metabolism to the Disposition of Niclosamide, a Repurposed Drug with Poor Bioavailability,” Drug Metab. Dispos. 47:756-763 (2019), which is hereby incorporated by reference in its entirety. […] Student's t-test was used. P values<0.05 were considered statistically significant.

## O=C(Nc1ccc([N+](=O)[O-])cc1Cl)c1cccc([N+](=O)[O-])c1O [JMX0207, N-(2-Chloro-4-nitrophenyl)-2-hydroxy-3-nitrobenzamide]
ZIKV NS3
  unprocessed viral polyprotein precursor (PP): dose-dependent increase of a protein with high molecular weight
  viral NS3 protein production: dose-dependent reduction of viral NS3 protein production
3D organoids
  toxic effect on the 3D organoids: did not have any toxic effect
[1]
  Perme. (cell permeability): 1.3 ×10⁻⁶ cm/s
LogP
  logP: 2.72
[2]
  sign of toxicity: did not display any sign of toxicity
DENV2; 48 hrs post-infection, read-out: EC50-DN2 (A549)
  EC50: 0.31 µM
DENV2; Table 4, preliminary SAR, read-out: EC50-DN2
  EC50: 0.36 µM
A549 cells
  CC50: 31.9 µM
[3]
  CC50: 33.9 µM
[4]
  AUC0→∞ ± S.D.: 2719 ± 1018
  Tmax ± S.D.: 1.2 ± 0.5 h
[4]; 40 mg/kg
  T1/2 ± S.D.: 11 ± 6.8 h
[4]; read-out: Cmax ± S.D.
  Cmax: 145 µM
